Assay results reported in ChEMBL document CHEMBL1139094, “The synthesis and structure-activity relationship studies of selective acetyl-CoA carboxylase inhibitors containing 4-(thiazol-5-yl)but-3-yn-2-amino motif: polar region modifications” (Bioorg Med Chem Lett, 2007).

Tests used:
Acetyl-CoA carboxylase 2 = Acetyl-CoA carboxylase 2 (Homo sapiens, UniProt O00763); test: Inhibition of ACC2
Acetyl-CoA carboxylase 1 = Acetyl-CoA carboxylase 1 (Homo sapiens, UniProt Q13085); test: Inhibition of ACC1
Homo sapiens = organism: Homo sapiens; test: Selectivity for human ACC2 over ACC1

Acetyl-CoA carboxylase 2, sequence (O00763 whole entry): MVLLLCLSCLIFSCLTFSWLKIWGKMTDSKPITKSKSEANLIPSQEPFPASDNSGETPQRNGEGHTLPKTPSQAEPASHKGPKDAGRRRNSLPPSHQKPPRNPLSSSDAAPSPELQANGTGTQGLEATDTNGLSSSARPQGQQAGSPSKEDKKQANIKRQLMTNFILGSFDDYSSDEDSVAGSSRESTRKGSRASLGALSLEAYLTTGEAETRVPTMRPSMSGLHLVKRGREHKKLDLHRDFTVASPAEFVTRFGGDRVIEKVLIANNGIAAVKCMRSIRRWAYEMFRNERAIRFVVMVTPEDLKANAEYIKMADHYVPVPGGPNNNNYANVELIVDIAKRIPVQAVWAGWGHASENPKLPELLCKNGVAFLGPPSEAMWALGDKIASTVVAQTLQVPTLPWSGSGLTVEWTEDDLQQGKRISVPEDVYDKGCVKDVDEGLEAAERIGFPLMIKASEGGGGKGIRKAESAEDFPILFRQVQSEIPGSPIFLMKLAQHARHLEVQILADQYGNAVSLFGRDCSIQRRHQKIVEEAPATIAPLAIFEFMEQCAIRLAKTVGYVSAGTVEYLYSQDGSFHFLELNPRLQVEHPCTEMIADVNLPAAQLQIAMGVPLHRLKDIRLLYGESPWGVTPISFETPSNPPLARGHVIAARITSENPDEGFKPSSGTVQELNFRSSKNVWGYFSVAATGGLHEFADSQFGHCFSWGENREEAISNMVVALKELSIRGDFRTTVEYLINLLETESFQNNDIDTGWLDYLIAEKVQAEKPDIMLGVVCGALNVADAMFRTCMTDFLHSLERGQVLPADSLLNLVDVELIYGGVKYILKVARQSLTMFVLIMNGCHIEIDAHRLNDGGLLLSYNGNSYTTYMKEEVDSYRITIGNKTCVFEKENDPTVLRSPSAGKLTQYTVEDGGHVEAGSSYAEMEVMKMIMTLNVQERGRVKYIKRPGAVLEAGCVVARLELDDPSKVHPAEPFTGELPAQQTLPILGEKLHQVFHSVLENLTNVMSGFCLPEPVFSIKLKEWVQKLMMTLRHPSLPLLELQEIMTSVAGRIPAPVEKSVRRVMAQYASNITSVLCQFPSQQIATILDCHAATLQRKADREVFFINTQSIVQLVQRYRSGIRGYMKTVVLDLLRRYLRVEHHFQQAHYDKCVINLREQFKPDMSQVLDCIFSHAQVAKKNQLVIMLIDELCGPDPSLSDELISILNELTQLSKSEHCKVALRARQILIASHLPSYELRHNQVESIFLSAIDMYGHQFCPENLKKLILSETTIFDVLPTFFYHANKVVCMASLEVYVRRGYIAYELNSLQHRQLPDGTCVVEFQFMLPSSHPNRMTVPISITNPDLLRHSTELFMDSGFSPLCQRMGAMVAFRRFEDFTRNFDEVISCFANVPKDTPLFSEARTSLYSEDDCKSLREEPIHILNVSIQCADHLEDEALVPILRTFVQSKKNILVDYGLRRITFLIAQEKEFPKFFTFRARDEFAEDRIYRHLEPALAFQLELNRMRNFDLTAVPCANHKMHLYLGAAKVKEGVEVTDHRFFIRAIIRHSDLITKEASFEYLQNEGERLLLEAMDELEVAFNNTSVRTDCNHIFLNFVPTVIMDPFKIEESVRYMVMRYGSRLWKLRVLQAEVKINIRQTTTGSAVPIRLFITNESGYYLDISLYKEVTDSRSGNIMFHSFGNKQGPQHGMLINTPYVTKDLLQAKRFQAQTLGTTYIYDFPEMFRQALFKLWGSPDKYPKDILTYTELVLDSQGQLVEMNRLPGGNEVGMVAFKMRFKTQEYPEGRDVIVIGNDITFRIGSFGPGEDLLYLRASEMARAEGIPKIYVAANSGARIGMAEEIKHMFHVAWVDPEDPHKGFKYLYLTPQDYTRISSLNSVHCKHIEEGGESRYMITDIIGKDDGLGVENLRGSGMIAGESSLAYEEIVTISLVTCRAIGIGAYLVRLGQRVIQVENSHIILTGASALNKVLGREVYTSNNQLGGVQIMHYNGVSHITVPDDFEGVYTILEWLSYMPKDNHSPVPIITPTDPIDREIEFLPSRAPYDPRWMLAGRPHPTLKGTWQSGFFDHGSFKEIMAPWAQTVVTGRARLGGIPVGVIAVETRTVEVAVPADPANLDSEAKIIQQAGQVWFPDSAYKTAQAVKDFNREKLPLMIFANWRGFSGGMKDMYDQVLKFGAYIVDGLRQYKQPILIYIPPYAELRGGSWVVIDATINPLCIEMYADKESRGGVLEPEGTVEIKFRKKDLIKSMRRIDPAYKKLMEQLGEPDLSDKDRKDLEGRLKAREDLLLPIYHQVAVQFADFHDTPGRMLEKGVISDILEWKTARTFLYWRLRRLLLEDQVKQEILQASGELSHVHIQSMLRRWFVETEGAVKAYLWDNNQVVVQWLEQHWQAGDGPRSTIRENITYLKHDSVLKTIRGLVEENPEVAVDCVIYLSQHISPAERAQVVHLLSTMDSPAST

IC50 (Acetyl-CoA carboxylase 2) | IC50 (Acetyl-CoA carboxylase 1) | Ratio IC50 (Homo sapiens) | SMILES
32 nM |  |  | CNC(=O)NC(C)C#Cc1cnc(Oc2ccc(OC(C)C)cc2)s1 (stereo not drawn)
71 nM | > 30000 nM |  | CC(C#Cc1cnc(Oc2ccc(OC(C)C)cc2)s1)NC(=O)N(C)C (stereo not drawn)
42 nM | 5020 nM |  | CC(C#Cc1cnc(Oc2ccc(Oc3ccccc3)cc2)s1)Nc1ccon1 (stereo not drawn)
3980 nM | > 30000 nM |  | CC(C#Cc1cnc(Oc2ccc(Oc3ccccc3)cc2)s1)Nc1ncc[nH]1 (stereo not drawn)
330 nM | > 30000 nM |  | CC(C#Cc1cnc(Oc2ccc(OC(C)C)cc2)s1)NC(=O)NO (stereo not drawn)
690 nM | 10700 nM |  | CC(C#Cc1cnc(Oc2ccc(Oc3ccccc3)cc2)s1)Nc1nccs1 (stereo not drawn)
83 nM | > 30000 nM |  | Cc1cc(NC(C)C#Cc2cnc(Oc3ccc(Oc4ccccc4)cc3)s2)no1 (stereo not drawn)
> 30000 nM | > 30000 nM |  | CC(C#Cc1cnc(Oc2ccc(OC(C)C)cc2)s1)NC(=O)C(=O)O (stereo not drawn)
> 30000 nM | > 30000 nM |  | CC(C#Cc1cnc(Oc2ccc(Oc3ccccc3)cc2)s1)Nc1nc2ccccc2s1 (stereo not drawn)
37 nM | > 30000 nM |  | CC(C#Cc1cnc(Oc2ccc(OC(C)C)cc2)s1)NC(N)=O (stereo not drawn)
440 nM | > 30000 nM |  | CCn1ccc(NC(C)C#Cc2cnc(Oc3ccc(Oc4ccccc4)cc3)s2)n1 (stereo not drawn)
220 nM | > 30000 nM |  | CC(C#Cc1cnc(Oc2ccc(OC(C)C)cc2)s1)NC(=O)C1CCOC1 (stereo not drawn)
680 nM | > 30000 nM |  | CC(C#Cc1cnc(Oc2ccc(OC(C)C)cc2)s1)NC(=O)ON (stereo not drawn)
> 30000 nM | > 30000 nM |  | CC(C#Cc1cnc(Oc2ccc(OC(C)C)cc2)s1)NC(=O)[C@@H]1CCCN1 (stereo partly drawn)
920 nM | > 30000 nM |  | CC(C#Cc1cnc(Oc2ccc(OC(C)C)cc2)s1)NC(=O)NCC(N)=O (stereo not drawn)
850 nM | > 30000 nM |  | COC(=O)C(=O)NC(C)C#Cc1cnc(Oc2ccc(OC(C)C)cc2)s1 (stereo not drawn)
1860 nM |  |  | CC(=O)NCC#Cc1cnc(Oc2ccc(OC(C)C)cc2)s1
670 nM | > 30000 nM |  | CC(C#Cc1cnc(Oc2ccc(OC(C)C)cc2)s1)NC(=O)N1CCOCC1 (stereo not drawn)
20500 nM | > 30000 nM |  | CC(C)CONC(=O)NC(C)C#Cc1cnc(Oc2ccc(OC(C)C)cc2)s1 (stereo not drawn)
530 nM | > 30000 nM |  | CCC(C#Cc1cnc(Oc2ccc(OC(C)C)cc2)s1)NC(C)=O (stereo not drawn)
38 nM | > 30000 nM |  | Cc1noc(NC(C)C#Cc2cnc(Oc3ccc(Oc4ccccc4)cc3)s2)c1C (stereo not drawn)
75 nM |  | > 1000 | CC(C#Cc1cnc(Oc2ccc(Oc3ccccc3)cc2)s1)N(O)C(N)=O (stereo not drawn)
500 nM | > 30000 nM |  | CC(=O)NC(C)(C)C#Cc1cnc(Oc2ccc(OC(C)C)cc2)s1
880 nM |  |  | CC(=O)NC(C#Cc1cnc(Oc2ccc(OC(C)C)cc2)s1)C1CC1 (stereo not drawn)
57 nM | > 30000 nM |  | Cc1cc(NC(C)C#Cc2cnc(Oc3ccc(Oc4ccccc4)cc3)s2)on1 (stereo not drawn)
910 nM | > 30000 nM |  | CC(=O)NC(C#Cc1cnc(Oc2ccc(OC(C)C)cc2)s1)CO (stereo not drawn)
> 30000 nM | > 30000 nM |  | CC(=O)NC(C#Cc1cnc(Oc2ccc(OC(C)C)cc2)s1)c1ccccc1 (stereo not drawn)
570 nM | > 30000 nM |  | CC(C#Cc1cnc(Oc2ccc(OC(C)C)cc2)s1)NC(=O)C1CCCC1 (stereo not drawn)
